Measured values taken from patent US20240156742A1, “TARGETED MULTIFUNCTIONAL NANOSTRUCTURED LIPID CARRIERS” (TECHNION RESEARCH & DEVELOPMENT FOUNDATION LIMITED, priority 2021, published 2024).

Tests used:
LNCaP cells = conditions: exposure for 48 hr; cited from earlier work
[1] = system: LNCaP target cells (PSMA-positive PC cell line); test: XTT growth inhibition assay, LNCaP; format: cell-based; conditions: Homo sapiens, free drug in growth medium for 72 hr
Method: (§1) The selective growth inhibition of CTX-loaded NPs was studied in LNCaP target cells and PC-3 non-target cells, using an XTT-based colorimetric cell proliferation kit as previously described. The preparation of CTX-loaded NPs was performed as described and had undergone 24 hr dialysis before cell exposure, to simulate the conditions in the human body. The dialysis was conducted as described in the “Kinetic profile of in vitro drug release” in the materials and methods section, but with the use of 10% FBS to capture the released CTX. Prior to the experiment, 96-well plates were coated with poly-L-Lysine before cell plating. LNCaP and PC-3 cells were seeded in 96-well plates at 5×10^4 and 2.5×10^4 cells/ml, respectively, and incubated overnight to allow for cell attachment. Following exposure of cells to CTX-loaded NPs at increasing CTX concentrations of 0.001-100 nM for 24 hr, cells were incubated for additional 72 hr with fresh growth medium. Cellular growth inhibition was determined by adding the XTT reagent. Data were plotted using a nonlinear curve fitting of a sigmoidal model (Hill1) with OriginPro 9.0 to obtain a dose-response curve according to Equation (3): […]

[2] = system: PC-3 non-target cells (PSMA-negative PC cell line); test: XTT growth inhibition assay, PC-3; format: cell-based; conditions: Homo sapiens; free drug in growth medium for 72 hr
Method: as §1

[3] = Kinetic profile of in vitro drug release by dialysis; format: physicochemical; conditions: dialysis in PBS pH 7.4 with 0.1% Tween 80, 37° C., 72 hr; burst within first 10 hr
Method: The kinetics of in vitro release of drugs from the loaded NPs and free drugs were studied by the dialysis method. One (1) ml of drug-loaded NPs or free drugs (both systems in DW) were placed in dialysis bags (molecular weight cutoff of 3.5 kDa, Sigma-Aldrich, Merck, Rehovot, Israel) and incubated in 30 ml volume of plasma simulating buffer comprising phosphate-buffered saline (PBS, 10 mM, pH 7.4) containing 0.1% tween 80 for 72 hr, at 37° C., with continuous gentle agitation. At defined time intervals (0, 2, 4, 6, 10, 23, 29, 36, 47, 58, 72 hr), the dialysate was collected and replaced by the same volume of fresh release buffer. To calculate the cumulative release of drugs, the dialysates from each time point were freeze-dried, dissolved in EtOH or DMSO for CTX or ENZ extraction, respectively, filtered through 0.45 μm membrane, and quantified using RP-HPLC, as described above. The results are presented as means of two experiments±SE.
The kinetics of in vitro release of CTX and ENZ from NPs were assessed by dialysis in a large volume of a plasma-simulating buffer for 72 hr at 37° C., with continuous mixing. […] At defined time intervals, the dialysate was replaced with a fresh buffer, and the drug was quantified using RP-HPLC. […]

CO[C@H]1C(=O)[C@]2(C)[C@@H](OC)C[C@H]3OC[C@@]3(OC(C)=O)[C@H]2[C@H](OC(=O)c2ccccc2)[C@]2(O)C[C@H](OC(=O)[C@H](O)[C@@H](NC(=O)OC(C)(C)C)c3ccccc3)C(C)=C1C2(C)C [free CTX, Cabazitaxel]
IC50 (LNCaP cells): 2600 to 3100 pM | IC50 [1]: 250 ± 40 pM | IC50 [2]: 180 ± 40 pM | in vitro release profile [3]: burst release

CNC(=O)c1ccc(N2C(=S)N(c3ccc(C#N)c(C(F)(F)F)c3)C(=O)C2(C)C)cc1F [unencapsulated ENZ, Enzalutamide]
in vitro release profile [3]: burst release
